In patent US4594356A, “Method for inducing mydriasis in animals” (Key Pharmaceuticals, Inc., priority 1985, dated 1986):
Read-outs that look alike come from different tables or passages of the source. Each block holds one compound with its values, some of them ahead of it.

What was measured:
[1] = Half-life of adrenalone diesters (R methyl, R1 = R2); type: in vitro ADME; conditions: R is methyl, medium not stated, read-out: half-life (t1/2)
Excerpt: Further, it should be noted that R is preferrably methyl.

eye [2] = conditions: cited from earlier work; for ocular sympathomimetic activity: in vivo; for potency relative to dipivalyl epinephrine: on a molar basis
eye [3] = conditions: in vivo; cited from earlier work
[4] = Ocular distribution after topical administration of the diester; type: in vivo; conditions: after topical administration of compound of Formula I (formed by hydrolysis / reduction-hydrolysis)
Excerpt: Thus, topical adminstration of a compound of Formula I to the eye of an animal effectively induces pupil diameter enlargement and lowers intraocular pressure for a limited duration as a novel type of site-specific delivery system for epinephrine without the concomitant appearance of any significant undesirable side-effects associated with the prior art.

eye [5] = conditions: topical, prolonged usage; cited from earlier work
glaucoma = conditions: cited from earlier work
intraocular pressure [6] = conditions: cited from earlier work
intraocular pressure [7] = conditions: cited from earlier work; for ocular tension (intraocular pressure) reduction: clinical study
pupil [8] = conditions: 2% solution; cited from earlier work
eye [9] = conditions: cited from earlier work
pupil [10] = test: Mydriatic study: pupil diameter difference between drug-treated and saline-treated eye in normal albino rabbits; type: in vivo, New Zealand male albino rabbits; conditions: drug eye vs saline eye difference
Experimental: Normal New Zealand male albino rabbits weighing from 2 to 3 kg. were used in the studies. The animals were placed in fiberglass restraining cages at least a half hour before the experiment and remained there throughout the test. The cages were located in a light and temperature controlled room. Pupil diameter was measured with a monostat vernier caliper held at a constant distance from observer and animal eyes. Drug solutions were formulated by dissolving the test agent in 0.9% saline solutions.
In the test procedure, a standard dose volume of 0.05 ml of the drug solution was applied to one eye and 0.9% saline was applied to the other eye of the same animal. The differences in the same animals between pupil diameter in millimeters of the eye with drug applied against the other eye with only saline instilled were recorded.
The pupillary dose response results are shown below in Table I.

[11] = Enzymatic hydrolysis in iris/ciliary body homogenate at 37° C.; type: in vitro ADME, New Zealand albino rabbits; conditions: Iris/ciliary body 10% homogenate, pH 7.4, 37° C.
Experimental: (§1) The stability of the ethyl succinyl derivative in isotonic saline buffer was determined in order to contrast the rates of hydrolysis of a chemical system with those of the ocular enzymatic systems. Ocular tissues were obtained from New Zealand albino rabbits. Homogenates were prepared in isotonic saline with a potassium phosphate buffer pH 7.4. High pressure liquid chromatography systems with spectrophotometric (254 nm) and electrochemical detection were used for determination.

[12] = Enzymatic hydrolysis in aqueous humor at 37° C.; type: in vitro ADME, New Zealand albino rabbits
Experimental: as §1

[13] = Enzymatic hydrolysis in corneal tissue homogenate at 37° C.; type: in vitro ADME, New Zealand albino rabbits; conditions: Corneal tissue 10% homogenate, pH 7.4, 37° C.
Experimental: as §1

[14] = Enzymatic hydrolysis in human plasma at 37° C.; type: in vitro ADME
[15] = Stability in isotonic saline buffer pH 7.4 at 37° C.; type: physicochemical; conditions: Isotonic saline pH 7.4, 37° C.
Experimental: as §1

- half-life [1]: 10.1 min
SMILES: CNCC(=O)c1ccc(OC(=O)C=Cc2ccccc2)c(OC(=O)C=Cc2ccccc2)c1 [R1 = R2 (5)]

- half-life [1]: 2.96 min
SMILES: CCCCCC(=O)Oc1ccc(C(=O)CNC)cc1OC(=O)CCCCC [R1 = R2 (3)]

SMILES: CCCC(=O)Oc1ccc(C(=O)CNC)cc1OC(=O)CCC [R1 = R2 (2)]
- half-life [1]: 2.13 min

SMILES: CNCC(=O)c1ccc(OC(=O)C(C)(C)C)c(OC(=O)C(C)(C)C)c1 [dipivalyl]
- ocular sympathomimetic activity (eye [2]): High ocular sympathomimetic activity
- potency relative to dipivalyl epinephrine (eye [2]): more potent on a molar basis than the successful prodrug of epinephrine, dipivalyl epinephrine
- recovery of normal vision (eye [3]): did not achieve faster recovery of normal vision

- half-life [1]: 8.55 min
SMILES: CCN(CC)C(=O)CCC(=O)Oc1ccc(C(=O)CNC)cc1OC(=O)CCC(=O)N(CC)CC [R1 = R2 (4)]

SMILES: CNC[C@H](O)c1ccc(O)c(O)c1 [epinephrine]
- ocular distribution [4]: found only in the uveal (iris-ciliary body) tissues
- mydriasis (side effect) (eye [5]): frequently causes mydriasis
- retinal maculopathy (side effect) (eye [5]): sometimes retinal maculopathy

SMILES: CC(C)NCC(=O)c1ccc(O)c(O)c1 [3,4-dihydroxy-2-(isopropylamino) acetophenone]
- mydriatic activity (side-effect) (glaucoma; in vivo): toxic, harmful or deleterious side-effect
- treatment of glaucoma (glaucoma; in vivo): successful treatment of glaucoma
- concentration needed to achieve the desired result (glaucoma; treatment of glaucoma): 3%

SMILES: CC(C)NCC(O)c1ccc(O)c(O)c1 (stereo not drawn) [Isoproterenol]
- intraocular pressure reduction (intraocular pressure [6]; in vivo): satisfactorily reduced intraocular pressure
- mydriasis (intraocular pressure [6]; in vivo): causing mydriasis
- serious side-effects (intraocular pressure [6]; treatment of glaucoma): taachycardia, weakness, and palpatations were observed

SMILES: CNCC(=O)c1ccc(O)c(O)c1 [adrenalone]
- ocular distribution [4]: found in every compartment of the eye
- intraocular pressure reduction (intraocular pressure [7]; 2% solution, patients suffering from glaucoma): did not cause any reduction in the intraocular pressure
- ocular tension (intraocular pressure) reduction (intraocular pressure [7]): do not
- mydriatic activity (pupil [8]): only a minimal level of mydriatic activity
- mydriasis (eye [9]; high concentrations): will not produce mydriasis
- reduction in the eye to adrenalin (eye [9]; topical administration): not reduced in the eye to the active adrenalin

SMILES: CNC[C@H](O)c1ccc(O)c(O)c1 [1-adrenaline]
- ocular tension (intraocular pressure) reduction (intraocular pressure [7]): lowered ocular tension

- k (hydrolysis rate constant) [11]: 7.91 min^-1 × 10^-1
- half-life ([11]; rabbit): 0.88 min
- k (hydrolysis rate constant) [12]: 5.09 min^-1 × 10^-1
- half-life ([12]; rabbit): 1.36 min
- k (hydrolysis rate constant) [13]: 3.08 min^-1 × 10^-1
- half-life ([13]; rabbit): 2.25 min
- half-life [14]: 1.01 min
- k (hydrolysis rate constant) [14]: 6.68 min^-1 × 10^-1
- k (hydrolysis rate constant) [15]: 0.04 min^-1 × 10^-1
- half-life ([15]; isotonic saline buffer): 173 min
SMILES: CCOC(=O)CCC(=O)Oc1ccc(C(=O)CNC)cc1OC(=O)CCC(=O)OCC [0,0-di(ethylsuccinyl) adrenalone hydroperchlorate]
- Pupil diameter (X ± S.E.) (pupil [10]; 1.0×10^-2 M, 10 minutes): 0.34 mm
- Pupil diameter (X ± S.E.) (pupil [10]; 1.0×10^-2 M, 20 minutes): 0.43 mm
- Pupil diameter (X ± S.E.) (pupil [10]; 1.0×10^-2 M, 30 minutes): 1.27 mm
- Pupil diameter (X ± S.E.) (pupil [10]; 1.0×10^-2 M, 60 minutes): 1.42 mm
- Pupil diameter (X ± S.E.) (pupil [10]; 1.0×10^-2 M, 120 minutes): 0.18 mm
- Pupil diameter (X ± S.E.) (pupil [10]; 1.0×10^-2 M, 180 minutes): 0.37 mm
- Pupil diameter (X ± S.E.) (pupil [10]; 1.5×10^-2 M, 10 minutes): 0.33 mm
- Pupil diameter (X ± S.E.) (pupil [10]; 1.5×10^-2 M, 20 minutes): 0.80 mm
- Pupil diameter (X ± S.E.) (pupil [10]; 1.5×10^-2 M, 30 minutes): 1.10 mm
- Pupil diameter (X ± S.E.) (pupil [10]; 1.5×10^-2 M, 60 minutes): 2.13 mm
- Pupil diameter (X ± S.E.) (pupil [10]; 1.5×10^-2 M, 120 minutes): 0.34 mm
- Pupil diameter (X ± S.E.) (pupil [10]; 1.5×10^-2 M, 180 minutes): 0.16 mm
- Pupil diameter (X ± S.E.) (pupil [10]; 2.0×10^-2 M, 10 minutes): 0.69 mm
- Pupil diameter (X ± S.E.) (pupil [10]; 2.0×10^-2 M, 20 minutes): 1.12 mm
- Pupil diameter (X ± S.E.) (pupil [10]; 2.0×10^-2 M, 30 minutes): 1.64 mm
- Pupil diameter (X ± S.E.) (pupil [10]; 2.0×10^-2 M, 60 minutes): 3.11 mm
- Pupil diameter (X ± S.E.) (pupil [10]; 2.0×10^-2 M, 120 minutes): 0.79 mm
- Pupil diameter (X ± S.E.) (pupil [10]; 2.0×10^-2 M, 180 minutes): 0.31 mm
- Pupil diameter (X ± S.E.) (pupil [10]; 2.4×10^-3 M, 10 minutes): 0.15 mm
- Pupil diameter (X ± S.E.) (pupil [10]; 2.4×10^-3 M, 20 minutes): 0.18 mm
- Pupil diameter (X ± S.E.) (pupil [10]; 2.4×10^-3 M, 30 minutes): 0.20 mm
- Pupil diameter (X ± S.E.) (pupil [10]; 2.4×10^-3 M, 60 minutes): 0.30 mm
- Pupil diameter (X ± S.E.) (pupil [10]; 2.4×10^-3 M, 120 minutes): 0.08 mm
- Pupil diameter (X ± S.E.) (pupil [10]; 2.4×10^-3 M, 180 minutes): 0.11 mm
- Pupil diameter (X ± S.E.) (pupil [10]; 2.5×10^-2 M, 10 minutes): 0.44 mm
- Pupil diameter (X ± S.E.) (pupil [10]; 2.5×10^-2 M, 20 minutes): 1.99 mm
- Pupil diameter (X ± S.E.) (pupil [10]; 2.5×10^-2 M, 30 minutes): 2.90 mm
- Pupil diameter (X ± S.E.) (pupil [10]; 2.5×10^-2 M, 60 minutes): 3.29 mm
- Pupil diameter (X ± S.E.) (pupil [10]; 2.5×10^-2 M, 120 minutes): 1.66 mm
- Pupil diameter (X ± S.E.) (pupil [10]; 2.5×10^-2 M, 180 minutes): 0.22 mm
- Pupil diameter (X ± S.E.) (pupil [10]; 5.0×10^-3 M, 10 minutes): 0.20 mm
- Pupil diameter (X ± S.E.) (pupil [10]; 5.0×10^-3 M, 20 minutes): 0.56 mm
- Pupil diameter (X ± S.E.) (pupil [10]; 5.0×10^-3 M, 30 minutes): 0.82 mm
- Pupil diameter (X ± S.E.) (pupil [10]; 5.0×10^-3 M, 60 minutes): 0.78 mm
- Pupil diameter (X ± S.E.) (pupil [10]; 5.0×10^-3 M, 120 minutes): 0.46 mm
- Pupil diameter (X ± S.E.) (pupil [10]; 5.0×10^-3 M, 180 minutes): 0.58 mm

- half-life [1]: 57.8 min
SMILES: CNCC(=O)c1ccc(OC(=O)C(C)(C)C)c(OC(=O)C(C)(C)C)c1 [R1 = R2 (7)]

- half-life [1]: 1.01 min
SMILES: CCOC(=O)CCC(=O)Oc1ccc(C(=O)CNC)cc1OC(=O)CCC(=O)OCC [R1 = R2 (1)]

SMILES: CNCC(=O)c1ccc(OC(=O)CC(C)C)c(OC(=O)CC(C)C)c1 [diisovaleryl]
- ocular sympathomimetic activity (eye [2]): High ocular sympathomimetic activity
- potency relative to dipivalyl epinephrine (eye [2]): more potent on a molar basis than the successful prodrug of epinephrine, dipivalyl epinephrine

SMILES: CNC[C@@H](O)c1ccc(O)c(O)c1 [d-adrenalin]
- ocular tension (intraocular pressure) reduction (intraocular pressure [7]): do not

- half-life [1]: 19.2 min
SMILES: CNCC(=O)c1ccc(OC(=O)CC(C)C)c(OC(=O)CC(C)C)c1 [R1 = R2 (6)]
